Measurements published in US20200095296A1, “USE OF PEPTIDES AS BIOMARKERS IN THE DIAGNOSIS, CONFIRMATION AND TREATMENT OF A NEUROLOGICAL DISORDER AND TCR AND/OR HLA IMMUNOPROFILING IN NEURODEGENERATIVE DISEASE” (THE TRUSTEES OF COLUMBIA UNIVERSITY IN THE CITY OF NEW YORK, priority 2017, published 2020).
Numbering of substitutions follows the chain as printed. Like-named read-outs stand apart in the source and are kept apart here.

Tests used:
DRB1*12:01 = DRB1*12:01 (Homo sapiens, UniProt P01903+P01911, A100R/A169T/D57E/D86V/F55L/H45Y/K41T/L162R/M171V/P40S/Q125H/Q178H/Q39Y/Q99D/R42G/S66L/T262R/V114A/V67L/W38E/Y59H/Y61H/Y89S); assay: competition binding assay, purified HLA DRB1*12:01
DRB1*03:01 = DRB1*03:01 (Homo sapiens, UniProt P01903+P01911, A100K/A102G/A103R/A169T/F55Y/I96L/K41T/L162R/M171V/P40S/Q125H/Q178H/Q39Y/R42S/S66N/T106N/T262R/W38E/Y61H); assay: competition binding assay, purified HLA DRB1*03:01
DRB4*01:01 = DRB4*01:01 (Homo sapiens, UniProt P01903+P13762, G164S); assay: competition binding assay, purified HLA DRB4*01:01
DRB1*11:01 = DRB1*11:01 (Homo sapiens, UniProt P01903+P01911, A100R/A169T/A87E/I96F/K41T/L162R/M171V/P40S/Q125H/Q178H/Q39Y/Q99D/R42S/S66Y/T262R/V115G/W38E); assay: competition binding assay, purified HLA DRB1*11:01
DPB1*02:01 = target: T1, DPB1*02:01 (Homo sapiens, UniProt P04440+P20036, A65V/A84D/A85E/K98E); assay: competition binding assay, purified HLA DPB1*02:01
T1 sequence (P20036 29-260): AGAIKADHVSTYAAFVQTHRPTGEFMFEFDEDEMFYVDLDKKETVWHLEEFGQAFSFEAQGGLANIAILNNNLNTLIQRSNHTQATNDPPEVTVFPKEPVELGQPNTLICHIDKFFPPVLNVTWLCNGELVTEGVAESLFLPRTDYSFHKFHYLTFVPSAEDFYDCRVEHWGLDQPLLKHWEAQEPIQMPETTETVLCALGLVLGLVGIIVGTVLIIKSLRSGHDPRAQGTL
T1 sequence (P04440 30-258 A65V/A84D/A85E/K98E): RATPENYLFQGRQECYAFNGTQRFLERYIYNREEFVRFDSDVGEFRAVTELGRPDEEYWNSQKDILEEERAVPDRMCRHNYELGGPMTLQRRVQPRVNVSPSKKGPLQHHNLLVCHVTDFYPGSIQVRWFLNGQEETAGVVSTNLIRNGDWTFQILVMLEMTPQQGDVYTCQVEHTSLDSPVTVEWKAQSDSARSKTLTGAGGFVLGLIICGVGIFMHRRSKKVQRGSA

DRB1*01:01 = DRB1*01:01 (Homo sapiens, UniProt P01903+P01911, A100R/D57E/F55L/F60I/F76Y/I96L/L162R/M171V/P40L/Q125E/R42F/V115G/Y59C); assay: competition binding assay, purified HLA DRB1*01:01
DRB1*13:02 = DRB1*13:02 (Homo sapiens, UniProt P01903+P01911, A100E/A169T/K41T/L162R/M171V/P40S/Q125H/Q178H/Q39Y/Q99D/R42S/S66N/T262R/V115G/W38E/Y61H); assay: competition binding assay, purified HLA DRB1*13:02
DPB1*04:01 = target: T2, DPB1*04:01 (Homo sapiens, UniProt P04440); assay: competition binding assay, purified HLA DPB1*04:01
T2 sequence (P04440 30-258): T1 sequence (P04440 30-258 A65V/A84D/A85E/K98E) with V36A, D55A, E56A, E69K
T2 sequence (P20036 29-260 partner): T1 sequence (P20036 29-260)

DRB1*07:01 = DRB1*07:01 (Homo sapiens, UniProt P01903+P01911, A100R/A102G/A103Q/D57E/D86V/E43K/F76Y/K127E/L162R/M171V/P40G/Q125H/Q99D/R33Q/R42Y/R54Q/S133A/S66F/T210M/V115G/Y107V/Y59L/Y89S); assay: competition binding assay, purified HLA DRB1*07:01
DPB1*04:02 = target: T3, DPB1*04:02 (Homo sapiens, UniProt P04440+P20036, A65V/A84D/A85E/L207M); assay: competition binding assay, purified HLA DPB1*04:02
T3 sequence (P04440 30-258 A65V/A84D/A85E/L207M): T1 sequence (P04440 30-258 A65V/A84D/A85E/K98E) with E69K, L178M
T3 sequence (P20036 29-260): T1 sequence (P20036 29-260)

DRB1*09:01 = DRB1*09:01 (Homo sapiens, UniProt P01903+P01911, A100R/A103E/D57H/D86V/F55Y/F60I/F76Y/I96F/K127E/L162R/M171V/P40D/Q125H/Q99R/R33Q/R42F/S133A/S66N/T210M/V115G/W38K/Y107V/Y59G/Y89S); assay: competition binding assay, purified HLA DRB1*09:01
DPB1*05:01 = target: T4, DPB1*05:01 (Homo sapiens, UniProt P04440+P20036, A65V/A84E/F191V/F64L/G113D/G114E/K142R/L158P/M116V/M62Q/P115A/Q81R/R125K/T114A/T199I/T259P/V234M); assay: competition binding assay, purified HLA DPB1*05:01
T4 sequence (P20036 29-260 M62Q/Q81R/T114A/K142R/L158P/F191V/T259P): T1 sequence (P20036 29-260) with M34Q, Q53R, T86A, K114R, L130P, F163V, T231P
T4 sequence (P04440 30-258 F64L/A65V/A84E/G113D/G114E/P115A/M116V/R125K/T199I/V234M): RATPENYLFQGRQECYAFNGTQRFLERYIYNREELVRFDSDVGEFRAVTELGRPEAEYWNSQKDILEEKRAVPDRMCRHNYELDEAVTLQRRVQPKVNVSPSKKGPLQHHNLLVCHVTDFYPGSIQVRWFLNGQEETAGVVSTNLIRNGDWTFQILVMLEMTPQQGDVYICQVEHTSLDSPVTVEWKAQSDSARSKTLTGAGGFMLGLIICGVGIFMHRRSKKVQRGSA

[1] = purified HLA, radiolabeled peptide competition, nM, read-out: binding to DRB1*12:01 (IC50)
[2] = purified HLA, radiolabeled peptide competition, nM, read-out: binding to DRB1*03:01 (IC50)
[3] = purified HLA, radiolabeled peptide competition, nM, read-out: binding to DRB4*01:01 (IC50)
[4] = purified HLA, radiolabeled peptide competition, nM, read-out: binding to DRB1*11:01 (IC50)
[5] = purified HLA, radiolabeled peptide competition, nM, read-out: binding to DRB1*01:01 (IC50)
[6] = purified HLA, radiolabeled peptide competition, nM, read-out: binding to DRB1*13:02 (IC50)
[7] = purified HLA, radiolabeled peptide competition, nM, read-out: binding to DRB1*07:01 (IC50)
[8] = purified HLA, radiolabeled peptide competition, nM, read-out: binding to DRB1*09:01 (IC50)

Structure (SMILES) | IC50 (DPB1*02:01) | IC50 (DPB1*04:01) | IC50 (DPB1*04:02) | IC50 (DPB1*05:01) | IC50 (DRB1*12:01; [1]) | IC50 (DRB1*03:01; [2]) | IC50 (DRB4*01:01; [3]) | IC50 (DRB1*11:01; [4]) | IC50 (DRB1*01:01; [5]) | IC50 (DRB1*13:02; [6]) | IC50 (DRB1*07:01; [7]) | IC50 (DRB1*09:01; [8]) | other results
CSCC[C@H](NC(=O)[C@H](CCC(=O)O)NC(=O)[C@H](Cc1ccc(O)cc1)NC(=O)[C@H](C)NC(=O)[C@H](CCC(=O)O)NC(=O)[C@H](CC(N)=O)NC(=O)[C@@H](N)CC(=O)O)C(=O)N1CCC[C@H]1C(=O)N[C@@H](CO)C(=O)N[C@@H](CCC(=O)O)C(=O)N[C@@H](CCC(=O)O)C(=O)NCC(=O)N[C@@H](Cc1ccc(O)cc1)C(=O)N[C@@H](CCC(N)=O)C(=O)N[C@@H](CC(=O)O)C(=O)O | > 10000 nM | > 10000 nM | > 10000 nM | > 10000 nM | – | – | – | – | – | – | – | – | IC50 (DRB1*12:01): > 10000 nM; IC50 (DRB1*03:01): > 10000 nM; IC50 (DRB4*01:01): > 10000 nM; IC50 (DRB1*11:01): > 10000 nM; IC50 (DRB1*01:01): > 10000 nM; IC50 (DRB1*13:02): > 10000 nM; IC50 (DRB1*07:01): > 10000 nM; IC50 (DRB1*09:01): 4600 nM
CSCC[C@H](NC(=O)[C@H](CCC(=O)O)NC(=O)[C@H](Cc1ccc(O)cc1)NC(=O)[C@H](C)NC(=O)[C@H](CCC(=O)O)NC(=O)[C@H](CC(N)=O)NC(=O)[C@@H](N)CC(=O)O)C(=O)N1CCC[C@H]1C(=O)N[C@@H](COP(=O)(O)O)C(=O)N[C@@H](CCC(=O)O)C(=O)N[C@@H](CCC(=O)O)C(=O)NCC(=O)N[C@@H](Cc1ccc(O)cc1)C(=O)N[C@@H](CCC(N)=O)C(=O)N[C@@H](CC(=O)O)C(=O)O | – | – | – | – | > 10000 nM | > 10000 nM | > 10000 nM | > 10000 nM | > 10000 nM | > 10000 nM | > 10000 nM | > 10000 nM | IC50 (DPB1*02:01; purified HLA, radiolabeled peptide competition, nM, read-out: binding to DPB1*02:01 (IC50)): > 10000 nM; IC50 (DPB1*04:01; purified HLA, radiolabeled peptide competition, nM, read-out: binding to DPB1*04:01 (IC50)): > 10000 nM; IC50 (DPB1*04:02; purified HLA, radiolabeled peptide competition, nM, read-out: binding to DPB1*04:02 (IC50)): > 10000 nM; IC50 (DPB1*05:01; purified HLA, radiolabeled peptide competition, nM, read-out: binding to DPB1*05:01 (IC50)): > 10000 nM
CSCC[C@H](NC(=O)[C@@H](N)CCC(=O)O)C(=O)N1CCC[C@H]1C(=O)N[C@@H](COP(=O)(O)O)C(=O)N[C@@H](CCC(=O)O)C(=O)N[C@@H](CCC(=O)O)C(=O)NCC(=O)N[C@@H](Cc1ccc(O)cc1)C(=O)N[C@@H](CCC(N)=O)C(=O)N[C@@H](CC(=O)O)C(=O)N[C@@H](Cc1ccc(O)cc1)C(=O)N[C@@H](CCC(=O)O)C(=O)N1CCC[C@H]1C(=O)N[C@@H](CCC(=O)O)C(=O)N[C@@H](C)C(=O)O | > 10000 nM | > 10000 nM | > 10000 nM | > 10000 nM | > 10000 nM | > 10000 nM | > 10000 nM | > 10000 nM | > 10000 nM | > 10000 nM | > 10000 nM | > 10000 nM | –
